Measurements from the NIST ThermoML archive (doi:10.1021/je400835u).
Numbers after ± are expanded uncertainties.

Columns and labels:
[1] = 100 kPa, Liquid; for viscosity: Falling or rolling sphere viscometry; for mass density: Vibrating tube method
[2] = xn = mol fraction of the nth substance listed; conditions: 100 kPa, Liquid, x2 = 0; for viscosity: Falling or rolling sphere viscometry; for mass density: Vibrating tube method

CCCCC1CCCCC1 [butylcyclohexane]
viscosity ([1]; 293.15 K): 1.296 ± 0.014 mPa·s
mass density ([1]; 293.15 K): 799.44 ± 0.15 kg/m3
viscosity ([1]; 298.15 K): 1.196 ± 0.013 mPa·s
mass density ([1]; 298.15 K): 795.7 ± 0.15 kg/m3
viscosity ([1]; 303.15 K): 1.107 ± 0.013 mPa·s
mass density ([1]; 303.15 K): 791.95 ± 0.15 kg/m3
viscosity ([1]; 308.15 K): 1.027 ± 0.013 mPa·s
mass density ([1]; 308.15 K): 788.19 ± 0.15 kg/m3
viscosity ([1]; 313.15 K): 0.958 ± 0.012 mPa·s
mass density ([1]; 313.15 K): 784.41 ± 0.15 kg/m3

CCCCCCCCCC [decane]
viscosity ([1]; 293.15 K): 0.93 ± 0.012 mPa·s
mass density ([1]; 293.15 K): 730.52 ± 0.16 kg/m3
viscosity ([1]; 298.15 K): 0.864 ± 0.012 mPa·s
mass density ([1]; 298.15 K): 726.76 ± 0.16 kg/m3
viscosity ([1]; 303.15 K): 0.806 ± 0.012 mPa·s
mass density ([1]; 303.15 K): 722.97 ± 0.16 kg/m3
viscosity ([1]; 308.15 K): 0.755 ± 0.011 mPa·s
mass density ([1]; 308.15 K): 719.17 ± 0.16 kg/m3
viscosity ([1]; 313.15 K): 0.709 ± 0.011 mPa·s
mass density ([1]; 313.15 K): 715.36 ± 0.17 kg/m3

CCCCCCCCCC [decane] + CCCCC1CCCCC1
viscosity ([2]; 293.15 K): 0.93 ± 0.012 mPa·s
mass density ([2]; 293.15 K): 730.52 ± 0.16 kg/m3
viscosity ([2]; 298.15 K): 0.864 ± 0.012 mPa·s
mass density ([2]; 298.15 K): 726.76 ± 0.16 kg/m3
viscosity ([2]; 303.15 K): 0.806 ± 0.012 mPa·s
mass density ([2]; 303.15 K): 722.97 ± 0.16 kg/m3
viscosity ([2]; 308.15 K): 0.755 ± 0.011 mPa·s
mass density ([2]; 308.15 K): 719.17 ± 0.16 kg/m3
viscosity ([2]; 313.15 K): 0.709 ± 0.011 mPa·s
mass density ([2]; 313.15 K): 715.36 ± 0.17 kg/m3

CCCCCCCCCCCC [dodecane]
viscosity ([1]; 293.15 K): 1.5 ± 0.015 mPa·s
mass density ([1]; 293.15 K): 749 ± 0.16 kg/m3
viscosity ([1]; 298.15 K): 1.376 ± 0.014 mPa·s
mass density ([1]; 298.15 K): 745.38 ± 0.16 kg/m3
viscosity ([1]; 303.15 K): 1.265 ± 0.013 mPa·s
mass density ([1]; 303.15 K): 741.75 ± 0.16 kg/m3
viscosity ([1]; 308.15 K): 1.167 ± 0.013 mPa·s
mass density ([1]; 308.15 K): 738.12 ± 0.16 kg/m3
viscosity ([1]; 313.15 K): 1.081 ± 0.013 mPa·s
mass density ([1]; 313.15 K): 734.48 ± 0.16 kg/m3

CCCCCCCCCCCC [dodecane] + CCCCC1CCCCC1
viscosity ([2]; 293.15 K): 1.5 ± 0.015 mPa·s
mass density ([2]; 293.15 K): 749 ± 0.16 kg/m3
viscosity ([2]; 298.15 K): 1.376 ± 0.014 mPa·s
mass density ([2]; 298.15 K): 745.38 ± 0.16 kg/m3
viscosity ([2]; 303.15 K): 1.265 ± 0.013 mPa·s
mass density ([2]; 303.15 K): 741.75 ± 0.16 kg/m3
viscosity ([2]; 308.15 K): 1.167 ± 0.013 mPa·s
mass density ([2]; 308.15 K): 738.12 ± 0.16 kg/m3
viscosity ([2]; 313.15 K): 1.081 ± 0.013 mPa·s
mass density ([2]; 313.15 K): 734.48 ± 0.16 kg/m3

CCCCCCC [heptane]
viscosity ([1]; 293.15 K): 0.421 ± 0.01 mPa·s
mass density ([1]; 293.15 K): 683.99 ± 0.17 kg/m3
viscosity ([1]; 298.15 K): 0.398 ± 0.01 mPa·s
mass density ([1]; 298.15 K): 679.74 ± 0.18 kg/m3
viscosity ([1]; 303.15 K): 0.378 ± 0.01 mPa·s
mass density ([1]; 303.15 K): 675.41 ± 0.18 kg/m3
viscosity ([1]; 308.15 K): 0.352 ± 0.01 mPa·s
mass density ([1]; 308.15 K): 671.12 ± 0.18 kg/m3
viscosity ([1]; 313.15 K): 0.337 ± 0.01 mPa·s
mass density ([1]; 313.15 K): 666.92 ± 0.18 kg/m3

CCCCCCC [heptane] + CCCCC1CCCCC1
viscosity ([2]; 293.15 K): 0.421 ± 0.01 mPa·s
mass density ([2]; 293.15 K): 683.99 ± 0.17 kg/m3
viscosity ([2]; 298.15 K): 0.398 ± 0.01 mPa·s
mass density ([2]; 298.15 K): 679.74 ± 0.18 kg/m3
viscosity ([2]; 303.15 K): 0.378 ± 0.01 mPa·s
mass density ([2]; 303.15 K): 675.41 ± 0.18 kg/m3
viscosity ([2]; 308.15 K): 0.352 ± 0.01 mPa·s
mass density ([2]; 308.15 K): 671.12 ± 0.18 kg/m3
viscosity ([2]; 313.15 K): 0.337 ± 0.01 mPa·s
mass density ([2]; 313.15 K): 666.92 ± 0.18 kg/m3

CCCCCCCCC [nonane]
viscosity ([1]; 293.15 K): 0.725 ± 0.011 mPa·s
mass density ([1]; 293.15 K): 717.88 ± 0.16 kg/m3
viscosity ([1]; 298.15 K): 0.679 ± 0.011 mPa·s
mass density ([1]; 298.15 K): 714 ± 0.17 kg/m3
viscosity ([1]; 303.15 K): 0.639 ± 0.011 mPa·s
mass density ([1]; 303.15 K): 710.1 ± 0.17 kg/m3
viscosity ([1]; 308.15 K): 0.604 ± 0.011 mPa·s
mass density ([1]; 308.15 K): 706.19 ± 0.17 kg/m3
viscosity ([1]; 313.15 K): 0.572 ± 0.011 mPa·s
mass density ([1]; 313.15 K): 702.26 ± 0.17 kg/m3

CCCCCCCCC [nonane] + CCCCC1CCCCC1
viscosity ([2]; 293.15 K): 0.725 ± 0.011 mPa·s
mass density ([2]; 293.15 K): 717.88 ± 0.16 kg/m3
viscosity ([2]; 298.15 K): 0.679 ± 0.011 mPa·s
mass density ([2]; 298.15 K): 714 ± 0.17 kg/m3
viscosity ([2]; 303.15 K): 0.639 ± 0.011 mPa·s
mass density ([2]; 303.15 K): 710.1 ± 0.17 kg/m3
viscosity ([2]; 308.15 K): 0.604 ± 0.011 mPa·s
mass density ([2]; 308.15 K): 706.19 ± 0.17 kg/m3
viscosity ([2]; 313.15 K): 0.572 ± 0.011 mPa·s
mass density ([2]; 313.15 K): 702.26 ± 0.17 kg/m3

CCCCCCCC [octane]
viscosity ([1]; 293.15 K): 0.546 ± 0.011 mPa·s
mass density ([1]; 293.15 K): 702.86 ± 0.17 kg/m3
viscosity ([1]; 298.15 K): 0.521 ± 0.011 mPa·s
mass density ([1]; 298.15 K): 698.85 ± 0.17 kg/m3
viscosity ([1]; 303.15 K): 0.49 ± 0.011 mPa·s
mass density ([1]; 303.15 K): 694.8 ± 0.17 kg/m3
viscosity ([1]; 308.15 K): 0.467 ± 0.011 mPa·s
mass density ([1]; 308.15 K): 690.73 ± 0.17 kg/m3
viscosity ([1]; 313.15 K): 0.442 ± 0.011 mPa·s
mass density ([1]; 313.15 K): 686.63 ± 0.17 kg/m3

CCCCCCCC [octane] + CCCCC1CCCCC1
viscosity ([2]; 293.15 K): 0.546 ± 0.011 mPa·s
mass density ([2]; 293.15 K): 702.86 ± 0.17 kg/m3
viscosity ([2]; 298.15 K): 0.521 ± 0.011 mPa·s
mass density ([2]; 298.15 K): 698.85 ± 0.17 kg/m3
viscosity ([2]; 303.15 K): 0.49 ± 0.011 mPa·s
mass density ([2]; 303.15 K): 694.8 ± 0.17 kg/m3
viscosity ([2]; 308.15 K): 0.467 ± 0.011 mPa·s
mass density ([2]; 308.15 K): 690.73 ± 0.17 kg/m3
viscosity ([2]; 313.15 K): 0.442 ± 0.011 mPa·s
mass density ([2]; 313.15 K): 686.63 ± 0.17 kg/m3

CCCCCCCCCCCCCC [tetradecane]
viscosity ([1]; 293.15 K): 2.329 ± 0.019 mPa·s
mass density ([1]; 293.15 K): 763.09 ± 0.15 kg/m3
viscosity ([1]; 298.15 K): 2.096 ± 0.018 mPa·s
mass density ([1]; 298.15 K): 759.57 ± 0.15 kg/m3
viscosity ([1]; 303.15 K): 1.898 ± 0.017 mPa·s
mass density ([1]; 303.15 K): 756.03 ± 0.15 kg/m3
viscosity ([1]; 308.15 K): 1.729 ± 0.016 mPa·s
mass density ([1]; 308.15 K): 752.51 ± 0.16 kg/m3
viscosity ([1]; 313.15 K): 1.584 ± 0.015 mPa·s
mass density ([1]; 313.15 K): 748.98 ± 0.16 kg/m3

CCCCCCCCCCCCCC [tetradecane] + CCCCC1CCCCC1
viscosity ([2]; 293.15 K): 2.329 ± 0.019 mPa·s
mass density ([2]; 293.15 K): 763.09 ± 0.15 kg/m3
viscosity ([2]; 298.15 K): 2.096 ± 0.018 mPa·s
mass density ([2]; 298.15 K): 759.57 ± 0.15 kg/m3
viscosity ([2]; 303.15 K): 1.898 ± 0.017 mPa·s
mass density ([2]; 303.15 K): 756.03 ± 0.15 kg/m3
viscosity ([2]; 308.15 K): 1.729 ± 0.016 mPa·s
mass density ([2]; 308.15 K): 752.51 ± 0.16 kg/m3
viscosity ([2]; 313.15 K): 1.584 ± 0.015 mPa·s
mass density ([2]; 313.15 K): 748.98 ± 0.16 kg/m3
